Test results published in DBAASP.
Converted amounts (≈) assume the structure as drawn. “And” between values parts separate entries of the source, which are not always exact repeats. Identical values can stand only once. Each block holds one compound with its values, some of them ahead of it.

What was measured:
Experiment in all cases: ≥ marks a high value that may be exact or a test limit, other limits are often not marked, values filed in µg/mL are converted to µM
[1] = system: Escherichia coli ATCC 25922
[2] = system: Pseudomonas aeruginosa PAO1
[3] = system: Enterococcus faecalis ATCC 29212
[4] = system: Staphylococcus aureus ATCC 29213
[5] = system: Staphylococcus epidermidis ATCC 12228
[6] = system: Salmonella typhimurium ATCC 7731
[7] = system: Pseudomonas aeruginosa ATCC 27853
[8] = system: Escherichia coli UB1005
[9] = system: Salmonella enterica subsp. enterica serovar Typhimurium ATCC 14028
[10] = system: Bacillus subtilis CMCC 63501
[11] = system: Pectobacterium carotovorum
[12] = system: Candida albicans
[13] = system: Cryptococcus neoformans
[14] = system: Bacillus subtilis
[15] = system: Staphylococcus aureus
[16] = system: Saccharomyces cerevisiae
[17] = system: Escherichia coli
[18] = system: Streptococcus pneumoniae
[19] = system: Streptococcus mutans
[20] = system: Serratia marcescens
[21] = system: Salmonella typhimurium
[22] = system: Pseudomonas putida
[23] = system: Escherichia coli NEB5alpha
[24] = system: Bacillus subtilis ATCC 6051
[25] = system: Escherichia coli DL7
[26] = system: Klebsiella aerogenes ATCC 13048
[27] = system: Listeria monocytogenes LO28
[28] = system: Cronobacter sakazakii DPC 6440
[29] = system: Aerococcus viridans
[30] = system: Bacillus megaterium
[31] = system: Micrococcus luteus

Structure (SMILES): CC[C@H](C)[C@H](NC(=O)[C@H](CCC(=O)O)NC(=O)CNC(=O)[C@@H](NC(=O)[C@H](Cc1ccccc1)NC(=O)[C@H](C)NC(=O)[C@H](CCCCN)NC(=O)CNC(=O)[C@H](Cc1ccccc1)NC(=O)[C@H](CCCCN)NC(=O)[C@H](CCCCN)NC(=O)[C@H](C)N)C(C)C)C(=O)N[C@@H](CCSC)C(N)=O [AKKFGKAFVGEIM]
MIC [1]: 32 µM (≈ 45.6 µg/mL)
MIC [2]: > 64 µM
MIC [3]: > 64 µM
MIC [4]: > 64 µM
MIC [5]: > 64 µM
MIC [6]: ≥ 64 µM
MIC [7]: > 64 µM
MIC [8]: ≥ 64 µM
MIC [9]: > 64 µM
MIC [10]: ≥ 64 µM

Structure (SMILES): CC(C)C[C@H](NC(=O)CN)C(=O)N[C@@H](CCC(N)=O)C(=O)N[C@@H](Cc1ccccc1)C(=O)N1CCC[C@H]1C(=O)N[C@H](C(=O)NCC(=O)N[C@@H](CCCN=C(N)N)C(=O)N[C@H](C(=O)N[C@@H](Cc1cnc[nH]1)C(=O)N[C@@H](CCCN=C(N)N)C(=O)N[C@@H](CC(C)C)C(=O)N[C@@H](CC(C)C)C(=O)N[C@@H](CCCN=C(N)N)C(=O)N[C@@H](CCCCN)C(=O)O)C(C)C)C(C)C [GLQFPVGRVHRLLRK]
MIC [12]: 4.5 µM (≈ 8 µg/mL)
MIC [13]: 4.5 µM (≈ 8 µg/mL)
MIC [14]: 2.25 µM (≈ 4 µg/mL)
MIC [15]: 4.5 µM (≈ 8 µg/mL)
MIC [16]: 4.5 µM (≈ 8 µg/mL)
MIC [17]: 2.25 µM (≈ 4 µg/mL)
MIC [18]: 2.25 µM (≈ 4 µg/mL)
MIC [19]: 2.25 µM (≈ 4 µg/mL)
MIC [20]: 1.13 µM (≈ 2 µg/mL)
MIC [21]: 1.13 µM (≈ 2 µg/mL)
MIC [22]: 2.25 µM (≈ 4 µg/mL)

Structure (SMILES): CC[C@H](C)[C@H](N)C(=O)N[C@@H](CC(N)=O)C(=O)NCC(=O)N[C@@H](CCSC)C(=O)N1CCC[C@H]1C(=O)N[C@@H](CCC(=O)O)C(=O)N[C@@H](CCC(=O)O)C(=O)N[C@H](C(=O)N[C@H](C(=O)N[C@@H](C)C(=O)N[C@@H](C)C(=O)O)C(C)C)C(C)C [INGMPEEVVAA]
MIC [23]: ≥ 1000 µM
MIC [24]: ≥ 1000 µM

Structure (SMILES): CC[C@H](C)[C@H](NC(=O)[C@H](C)NC(=O)[C@@H](NC(=O)[C@@H]1CCCN1C(=O)[C@@H](NC(=O)[C@H](CC(C)C)NC(=O)[C@@H]1CCCN1C(=O)[C@H](Cc1c[nH]c2ccccc12)NC(=O)[C@H](Cc1ccccc1)NC(=O)[C@H](CCCN=C(N)N)NC(=O)[C@@H](N)CCCCN)C(C)C)C(C)C)C(=O)N[C@@H](CC(N)=O)C(=O)N[C@H](C(=O)N[C@H](C(=O)N[C@@H](C)C(N)=O)C(C)C)[C@@H](C)O [KRFWPLVPVAINTVA]
MIC [1]: > 128 µM
MIC [4]: > 128 µM
MIC [5]: 128 µM (≈ 219 µg/mL)
MIC [6]: ≥ 128 µM
MIC [7]: > 128 µM
MIC [8]: ≥ 64 µM
MIC [9]: > 128 µM
MIC [10]: ≥ 128 µM

Structure (SMILES): CC[C@H](C)[C@H](NC(=O)CNC(=O)CNC(=O)[C@@H](NC(=O)[C@@H]1CCCN1C(=O)[C@H](Cc1ccccc1)NC(=O)[C@H](CCC(N)=O)NC(=O)[C@H](CC(C)C)NC(=O)CNC(=O)[C@H](C)NC(=O)[C@@H](N)CCCN=C(N)N)C(C)C)C(=O)NCC(=O)N[C@@H](CCCCN)C(=O)N[C@@H](Cc1ccccc1)C(=O)N[C@@H](CC(C)C)C(=O)N[C@@H](Cc1cnc[nH]1)C(=O)N[C@@H](CO)C(=O)N[C@@H](C)C(=O)N[C@@H](CCCCN)C(=O)N[C@@H](CCCCN)C(=O)N[C@@H](Cc1ccccc1)C(=O)NCC(=O)N[C@@H](CCCCN)C(=O)O [RAGLQFPVGGIGKFLHSAKKFGK]
MIC [12]: 1.64 µM (≈ 4 µg/mL)
MIC [13]: 1.64 µM (≈ 4 µg/mL)
MIC [14]: 6.55 µM (≈ 16 µg/mL)
MIC [15]: 6.55 µM (≈ 16 µg/mL)
MIC [16]: 1.64 µM (≈ 4 µg/mL)
MIC [17]: 6.55 µM (≈ 16 µg/mL)
MIC [18]: 6.55 µM (≈ 16 µg/mL)
MIC [19]: 6.55 µM (≈ 16 µg/mL)
MIC [20]: 6.55 µM (≈ 16 µg/mL)
MIC [21]: 3.27 µM (≈ 8 µg/mL)
MIC [22]: 13.1 µM (≈ 32 µg/mL)

Structure (SMILES): CC[C@H](C)[C@H](NC(=O)[C@@H](NC(=O)[C@H](CCCCN)NC(=O)[C@@H](NC(=O)[C@H](CCCCN)NC(=O)[C@H](C)NC(=O)[C@H](CCC(N)=O)NC(=O)[C@@H](NC(=O)[C@@H](N)Cc1c[nH]c2ccccc12)[C@@H](C)CC)[C@@H](C)O)C(C)C)C(=O)N[C@@H](C)C(=O)N[C@@H](Cc1ccc(O)cc1)C(=O)N[C@H](C(=O)N[C@@H](CCCN=C(N)N)C(=O)N[C@@H](Cc1ccc(O)cc1)C(=O)N[C@@H](CC(C)C)C(=O)O)C(C)C [WIQAKTKVIAYVRYL]
MIC [27]: 2.44 µM (≈ 4.52 µg/mL)
MIC [28]: 19.5 µM (≈ 36.2 µg/mL)

Structure (SMILES): CC[C@H](C)[C@H](NC(=O)[C@@H](N)Cc1c[nH]c2ccccc12)C(=O)N[C@@H](CCC(N)=O)C(=O)N1CCC[C@H]1C(=O)N[C@@H](CCCCN)C(=O)N[C@H](C(=O)N[C@@H](CCCCN)C(=O)N[C@H](C(=O)N[C@H](C(=O)N1CCC[C@H]1C(=O)N[C@@H](C)C(=O)N[C@H](C(=O)N[C@@H](CCCN=C(N)N)C(=O)N[C@@H](C)C(=O)N[C@@H](CC(C)C)C(=O)O)C(C)C)[C@@H](C)CC)C(C)C)[C@@H](C)O [WIQPKTKVIPAVRAL]
MIC [27]: ≥ 156 µM
MIC [28]: ≥ 312 µM

The remaining lines, values ahead:

MIC [11]: 3.46 µM (≈ 8.38 µg/mL)
Structure (SMILES): CC[C@H](C)[C@H](NC(=O)[C@H](C)NC(=O)[C@@H](N)CS)C(=O)N[C@@H](CCC(=O)O)C(=O)N[C@@H](Cc1cnc[nH]1)C(=O)N[C@@H](CCSC)C(=O)N[C@@H](CCCN=C(N)N)C(=O)N[C@H](C(=O)N1CCC[C@H]1C(=O)N[C@@H](CC(C)C)C(=O)N[C@@H](CCCCN)C(=O)N1CCC[C@H]1C(=O)N[C@@H](Cc1ccccc1)C(=O)N[C@@H](CO)C(=O)N[C@@H](Cc1ccccc1)C(=O)NCC(=O)N1CCC[C@H]1C(=O)N1CCC[C@H]1C(=O)N[C@@H](Cc1ccc(O)cc1)C(=O)N[C@@H](CC(N)=O)C(=O)N[C@@H](CC(C)C)C(=O)O)[C@@H](C)O [CAIEHMRTPLKPFSFGPPYNL]

MIC [23]: ≥ 633 µM
MIC [24]: ≥ 1270 µM
Structure (SMILES): CC(C)C[C@H](NC(=O)[C@H](CCCN=C(N)N)NC(=O)[C@H](CC(C)C)NC(=O)[C@H](CC(C)C)NC(=O)[C@H](CCC(N)=O)NC(=O)[C@H](CCC(=O)O)NC(=O)[C@@H](N)CC(C)C)C(=O)N[C@@H](CCCCN)C(=O)N[C@@H](CCCCN)C(=O)N[C@@H](Cc1ccc(O)cc1)C(=O)O [LEQLLRLKKY]

MIC [25]: 0.25 µM and 0.125 µM
MIC [5]: 0.25 µM (≈ 0.468 µg/mL)
MIC [26]: ≥ 32 µM
Structure (SMILES): CC[C@H](C)[C@H](NC(=O)[C@@H](N)C(C)C)C(=O)N[C@@H](Cc1cnc[nH]1)C(=O)N[C@@H](CCCCN)C(=O)N[C@@H](CC(C)C)C(=O)N[C@@H](C)C(=O)N[C@@H](CCCCN)C(=O)N[C@@H](CC(C)C)C(=O)N[C@@H](C)C(=O)N[C@@H](CCCCN)C(=O)N[C@@H](CCCCN)C(=O)N[C@@H](CC(C)C)C(=O)N[C@@H](C)C(=O)N[C@@H](CCCCN)C(=O)N[C@@H](CC(C)C)C(=O)N[C@@H](C)C(=O)N[C@@H](CCCCN)C(N)=O [VIHKLAKLAKKLAKLAK]

MIC [29]: 28.3 µM (≈ 42.8 µg/mL)
MIC [30]: 28.3 µM (≈ 42.8 µg/mL)
MIC [31]: 28.3 µM (≈ 42.8 µg/mL)
Structure (SMILES): CSCC[C@H](NC(=O)[C@H](CCCN=C(N)N)NC(=O)[C@H](CCC(N)=O)NC(=O)[C@@H]1CSSC[C@H](NC(=O)[C@@H](N)Cc2ccc(O)cc2)C(=O)N[C@@H](CC(N)=O)C(=O)N[C@@H](CCCN=C(N)N)C(=O)N[C@@H](CCCN=C(N)N)C(=O)N[C@@H]([C@@H](C)O)C(=O)NCC(=O)N[C@@H](CCCCN)C(=O)N1)C(=O)O [YCNRRTGKCQRM]
